Test results as given in US20250360235A1, “RADI[…] AND METHOD FOR RADIOLABELLING” (Telix Innovations SA, priority 2024, published 2025).

Legend:
Format in all cases: physicochemical
[1] = Radiochemical purity by HPLC over time after radiolabelling; conditions: validation batches, 25 mg ascorbic acid
Description: (§1) Table 1 to Table 5 show the results of various radiolabelling experiments on radiochemical purity and the chelation yield. The radiolabelling experiments in the tables are carried out as described in: • Example 1 for when the gallium-68 source is GE Liquid target generator and EZAG GalliaPharm generator; • Example 2 for when the gallium-68 source is IRE Galli Eo generator; • Example 3 for when the gallium-68 source is GE solid target generator;
(§2) However, the experiments were carried out with the amount of ascorbic acid as indicated in the Tables 1 to 5, and the activity as indicated in the Tables 1 to 5. Radiochemical purities were measured at various times (T0, T1, T4, T6) after the radiolabelled experiments have been conducted.
(§3) The kits of Example 1, Example 2 or Example 3, with amounts of ascorbic acid as set out in Table 7 were used in the experiments for the ascorbic acid bracketing matrix. Three strengths of [^68Ga]Ga-PSMA-11 will be tested, i.e. 50 mCi/ml, 7 mCi/ml and 1 mCi/ml. Radiochemical purity was determined at different time points (TO, T1, T4 or T6), as set out in Table 7.

[2] = Visual inspection of [68Ga]PSMA-11 solution (acceptance: colourless to slightly yellow solution, free from visible particles); set-up: key: C = conforms to specifications
Description: as §1, §2, §3

[3] = as above; set-up: key: C = all results conform to specifications
Description: as §1, §2, §3

[4] = Drug product stability against radiolysis with ascorbic acid
Description: as §1, §2, §3

O=C([O-])CN(CCN(CC(=O)[O-])Cc1cc(CCC(=O)NCCCCCC(=O)NCCCC[C@H](NC(=O)N[C@@H](CCC(=O)O)C(=O)O)C(=O)O)ccc1[O-])Cc1cc(CCC(=O)O)ccc1[O-].[68Ga+3].[OH3+] [[^68Ga]PSMA-11, gallium-68 radiolabelled Glu-urea-Lys-HBED-CC (gozetotide or PSMA-11)]
Radiochemical Purity (HPLC) Ga-68 PSMA-11 (%) ([1]; 51.6-62.7 mCi, 4.56-5.88 mCi/mL, IRE Galli Eo, n=3, T0): C (C = all results conform to specifications)
Radiochemical Purity (HPLC) Ga-68 PSMA-11 (%) ([1]; 51.6-62.7 mCi, 4.56-5.88 mCi/mL, IRE Galli Eo, n=3, T4 (4 h)): C (C = all results conform to specifications)
Radiochemical Purity (HPLC) Ga-68 PSMA-11 (%) ([1]; 53.3-74.4 mCi, 5.03-6.92 mCi/mL, GE Liquid target, average of 3, T0): 99%
Radiochemical Purity (HPLC) Ga-68 PSMA-11 (%) ([1]; 53.3-74.4 mCi, 5.03-6.92 mCi/mL, GE Liquid target, average of 3, T4 (4 h)): 100%
Radiochemical Purity (HPLC) Ga-68 PSMA-11 (%) ([1]; 53.3-74.4 mCi, 5.03-6.92 mCi/mL, GE Liquid target, n=3, T0): C (C = all results conform to specifications)
Radiochemical Purity (HPLC) Ga-68 PSMA-11 (%) ([1]; 53.3-74.4 mCi, 5.03-6.92 mCi/mL, GE Liquid target, n=3, T4 (4 h)): C (C = all results conform to specifications)
Radiochemical Purity (HPLC) Ga-68 PSMA-11 (%) ([1]; 65.0-66.4 mCi, 5.74-6.15 mCi/mL, EZAG GalliaPharm, average of 3, T0): 100%
Radiochemical Purity (HPLC) Ga-68 PSMA-11 (%) ([1]; 65.0-66.4 mCi, 5.74-6.15 mCi/mL, EZAG GalliaPharm, average of 3, T4 (4 h)): 100%
Radiochemical Purity (HPLC) Ga-68 PSMA-11 (%) ([1]; 65.0-66.4 mCi, 5.74-6.15 mCi/mL, EZAG GalliaPharm, n=3, T0): C (C = all results conform to specifications)
Radiochemical Purity (HPLC) Ga-68 PSMA-11 (%) ([1]; 65.0-66.4 mCi, 5.74-6.15 mCi/mL, EZAG GalliaPharm, n=3, T4 (4 h)): C (C = all results conform to specifications)
Radiochemical Purity (HPLC) Ga-68 PSMA-11 ([1]; 537-551 mCi, 50.2-51.6 mCi/mL, GE Solid Target, average of 3, T0): 100%
Radiochemical Purity (HPLC) Ga-68 PSMA-11 ([1]; 537-551 mCi, 50.2-51.6 mCi/mL, GE Solid Target, average of 3, T6 (6 h)): 100%
Radiochemical Purity (HPLC) Ga-68 PSMA-11 ([1]; 537-551 mCi, 50.2-51.6 mCi/mL, GE Solid Target, n=3, T0): C (C = all results conform to specifications)
Radiochemical Purity (HPLC) Ga-68 PSMA-11 ([1]; 537-551 mCi, 50.2-51.6 mCi/mL, GE Solid Target, n=3, T6 (6 h)): C (C = all results conform to specifications)
Radiochemical Purity (HPLC) Ga-68 PSMA-11 ([1]; 555-564 mCi, 51.1-52.7 mCi/mL, ARTMS Solid Target, average of 3, T0): 99%
Radiochemical Purity (HPLC) Ga-68 PSMA-11 ([1]; 555-564 mCi, 51.1-52.7 mCi/mL, ARTMS Solid Target, average of 3, T6 (6 h)): 100%
Radiochemical Purity (HPLC) Ga-68 PSMA-11 ([1]; 555-564 mCi, 51.1-52.7 mCi/mL, ARTMS Solid Target, n=3, T0): C (C = all results conform to specifications)
Radiochemical Purity (HPLC) Ga-68 PSMA-11 ([1]; 555-564 mCi, 51.1-52.7 mCi/mL, ARTMS Solid Target, n=3, T6 (6 h)): C (C = all results conform to specifications)
Visual Inspection ([2]; 1 mg ascorbic acid, 58.7-71.1 mCi, 7.47-8.99 mCi/mL, GE Liquid target, n=3, T0): C
Visual Inspection ([2]; 1 mg ascorbic acid, 58.7-71.1 mCi, 7.47-8.99 mCi/mL, GE Liquid target, n=3, T4 (4 h)): C
Visual Inspection ([2]; 2.5 mg ascorbic acid, 49.9-76.9 mCi, 6.31-9.72 mCi/mL, GE Liquid target, n=3, T0): C
Visual Inspection ([2]; 2.5 mg ascorbic acid, 49.9-76.9 mCi, 6.31-9.72 mCi/mL, GE Liquid target, n=3, T4 (4 h)): C
Visual Inspection ([2]; 5 mg ascorbic acid, 60-69.9 mCi, 7.61-8.81 mCi/mL, 3 × GE Liquid Target, 3 × EZAG GalliaPharm, n=6, T0): C
Visual Inspection ([2]; 5 mg ascorbic acid, 60-69.9 mCi, 7.61-8.81 mCi/mL, 3 × GE Liquid Target, 3 × EZAG GalliaPharm, n=6, T4 (4 h)): C
Visual Inspection ([2]; 10 mg ascorbic acid, 458-500 mCi, 43.4-47.3 mCi/mL, GE Solid Target, n=3, T0): C
Visual Inspection ([2]; 10 mg ascorbic acid, 458-500 mCi, 43.4-47.3 mCi/mL, GE Solid Target, n=3, T4 (4 h)): C
Visual Inspection ([2]; 10 mg ascorbic acid, 514-520 mCi, 49.0-66.1 mCi/mL, GE Solid Target, n=3, T0): C
Visual Inspection ([2]; 10 mg ascorbic acid, 514-520 mCi, 49.0-66.1 mCi/mL, GE Solid Target, n=3, T6 (6 h)): C
Visual Inspection ([2]; 15 mg ascorbic acid, 10.0-18.4 mCi, 0.95-1.77 mCi/mL, 1 × EZAG GalliaPharm, 2 × IRE Galli Eo, n=3, T0): C
Visual Inspection ([2]; 15 mg ascorbic acid, 10.0-18.4 mCi, 0.95-1.77 mCi/mL, 1 × EZAG GalliaPharm, 2 × IRE Galli Eo, n=3, T1 (1 h)): C
Visual Inspection ([2]; 15 mg ascorbic acid, 23.7-47.6 mCi, 2.26-4.53 mCi/mL, 1 × EZAG GalliaPharm, 2 × IRE Galli Eo, n=3, T0): C
Visual Inspection ([2]; 15 mg ascorbic acid, 23.7-47.6 mCi, 2.26-4.53 mCi/mL, 1 × EZAG GalliaPharm, 2 × IRE Galli Eo, n=3, T4 (4 h)): C
Visual Inspection ([2]; 20 mg ascorbic acid, 514-544 mCi, 48.3-51.9 mCi/mL, GE Solid Target, n=2, T0): C
Visual Inspection ([2]; 20 mg ascorbic acid, 514-544 mCi, 48.3-51.9 mCi/mL, GE Solid Target, n=2, T6 (6 h)): C
Visual Inspection ([2]; 50 mg ascorbic acid, 560 mCi, 71.1 mCi/mL, GE Solid Target, n=1, T0): C
Visual Inspection ([2]; 50 mg ascorbic acid, 560 mCi, 71.1 mCi/mL, GE Solid Target, n=1, T6 (6 h)): C
Visual Inspection ([3]; 25 mg ascorbic acid, 10.2 mCi, 0.97 mCi/mL, IRE Galli Eo, n=1, T0): C
Visual Inspection ([3]; 25 mg ascorbic acid, 10.2 mCi, 0.97 mCi/mL, IRE Galli Eo, n=1, T1 (1 h)): C
Visual Inspection ([3]; 25 mg ascorbic acid, 19.5-20.0 mCi, 1.85-1.90 mCi/mL, EZAG GalliaPharm, n=2, T0): C
Visual Inspection ([3]; 25 mg ascorbic acid, 19.5-20.0 mCi, 1.85-1.90 mCi/mL, EZAG GalliaPharm, n=2, T1 (1 h)): C
Visual Inspection ([3]; 25 mg ascorbic acid, 23.3-24 mCi, 2.22-2.28 mCi/mL, IRE Galli Eo, n=2, T0): C
Visual Inspection ([3]; 25 mg ascorbic acid, 23.3-24 mCi, 2.22-2.28 mCi/mL, IRE Galli Eo, n=2, T4 (4 h)): C
Visual Inspection ([3]; 25 mg ascorbic acid, 46.0-46.1 mCi, 4.38-4.39 mCi/mL, EZAG GalliaPharm, n=2, T0): C
Visual Inspection ([3]; 25 mg ascorbic acid, 46.0-46.1 mCi, 4.38-4.39 mCi/mL, EZAG GalliaPharm, n=2, T4 (4 h)): C
Visual Inspection ([3]; control, 0 mg ascorbic acid, 70 mCi, GE Solid Target, n=1, T0): C
Visual Inspection ([3]; control, 0 mg ascorbic acid, 70 mCi, GE Solid Target, n=1, T4 (4 h)): C
Visual Inspection ([3]; validation batches, 25 mg ascorbic acid, 51.6-62.7 mCi, 4.56-5.88 mCi/mL, IRE Galli Eo, n=3, T0): C
Visual Inspection ([3]; validation batches, 25 mg ascorbic acid, 51.6-62.7 mCi, 4.56-5.88 mCi/mL, IRE Galli Eo, n=3, T4 (4 h)): C
Visual Inspection ([3]; validation batches, 25 mg ascorbic acid, 53.3-74.4 mCi, 5.03-6.92 mCi/mL, GE Liquid target, n=3, T0): C
Visual Inspection ([3]; validation batches, 25 mg ascorbic acid, 53.3-74.4 mCi, 5.03-6.92 mCi/mL, GE Liquid target, n=3, T4 (4 h)): C
Visual Inspection ([3]; validation batches, 25 mg ascorbic acid, 65.0-66.4 mCi, 5.74-6.15 mCi/mL, EZAG GalliaPharm, n=3, T0): C
Visual Inspection ([3]; validation batches, 25 mg ascorbic acid, 65.0-66.4 mCi, 5.74-6.15 mCi/mL, EZAG GalliaPharm, n=3, T4 (4 h)): C
Visual Inspection ([3]; validation batches, 25 mg ascorbic acid, 537-551 mCi, 50.2-51.6 mCi/mL, GE Solid Target, n=3, T0): C
Visual Inspection ([3]; validation batches, 25 mg ascorbic acid, 537-551 mCi, 50.2-51.6 mCi/mL, GE Solid Target, n=3, T6 (6 h)): C
Visual Inspection ([3]; validation batches, 25 mg ascorbic acid, 555-564 mCi, 51.1-52.7 mCi/mL, ARTMS Solid Target, n=3, T0): C
Visual Inspection ([3]; validation batches, 25 mg ascorbic acid, 555-564 mCi, 51.1-52.7 mCi/mL, ARTMS Solid Target, n=3, T6 (6 h)): C
time for which stability is maintained ([4]; 20 mg ascorbic acid, highest strength 48.3-51.9 mCi/mL (worst case), Table 8): up to 6 hours
time for which the formulation is stabilized ([4]; 25 mg ascorbic acid, Table 3): up to 4 hours
time for which ascorbic acid is an effective radio-stabilizer / stability maintained ([4]; 10-50 mg ascorbic acid, 458-560 mCi starting activity, 48.3-71.1 mCi/mL, Table 2): up to 6 hours
stability ([4]; 18.75-31.25 mg ascorbic acid, 5.1-5.88 mCi/mL and 0.84-2.54 mCi/mL, Tables 9 and 10): stability of the [^68Ga]PSMA-11 is maintained
